Assay results taken from patent publication US6787569B1, “Therapeutic guanidines” (Cambridge NeuroScience, Inc., priority 1994, dated 2004).
Structures can show the parent of a compound that is named as a salt. Where two headings read alike, the source gives them in different places.

Columns and labels:
[1] = system: depolarization-induced 3H-glutamate release from brain nerve terminals; test: Inhibition of 3H-glutamate release, high [K+] depolarization, rapid superfusion of synaptosomes; format: biochemical; conditions: rat brain synaptosomes; for % Inhibition of ^3H-Glu Rel @ 0.3 μM: 0.3 μM compound; for % Inhibition of ^3H-Glu Rel @ 1 μM: 1 μM compound; for % Inhibition of ^3H-Glu Rel @ 3 μM: 3 μM compound; for % Inhibition of ^3H-Glu Rel @ 0.1 μM: 0.1 μM compound
[2] = system: audiogenic seizures in DBA/2 mice; test: In vivo anticonvulsant activity in the DBA/2 mouse model (audiogenic seizures); conditions: 30 minutes prior to auditory stimulus
Experimental: Compounds were tested for their effectiveness in preventing seizures in DBA/2 mice which have a unique sensitivity to auditory stimulation. Exposure to loud high-frequency sounds can trigger seizure activity in these animals. This sensitivity develops from postnatal day 12 and peaks around day 21 and slowly diminishes as the animals mature. The unusual response to auditory stimulation in this strain of mouse is believed to be due to a combination of early myelination (causing an unusually low excitatory threshold) and delayed development of inhibitory mechanisms. Glutamate, the predominant excitatory neurotransmitter, has been implicated in this response. Blockade of glutamate receptors of the NMDA and AMPA subtypes, prevents audiogenic seizures in these mice. Compounds that block the release of glutamate should similarly act to prevent seizure activity, and may be therapeutic in other neurologic disorders such as stroke, which also involves glutamate-mediated damage.
Mice were injected intraperitoneally with the compound specified in Table V below or with vehicle control, 30 minutes prior to being placed in a bell jar and turning on the auditory stimulus (12 KHz sine wave at 110-120 db). Administered doses are specified in Table V as milligram of compound per kilogram bodyweight of mouse. The auditory stimulus was left on for 60 seconds and mice reactions were timed and recorded.
Percentage inhibition was determined with reference to vehicle controls.

[3] = system: veratridine-induced 3H-glutamate release from brain nerve terminals (voltage-activated presynaptic Na channels); test: Inhibition of veratridine-induced 3H-glutamate release, rapid superfusion of synaptosomes; format: biochemical, rat; conditions: 50 μM veratridine-induced release, rat brain synaptosomes; for % Inhibition of ^3H-Glu Rel @ 1 μM (*veratridine-induced glutamate release assay): 1 μM compound; for % Inhibition of ^3H-Glu Rel @ 3 μM (*veratridine-induced glutamate release assay): 3 μM compound
[4] = target: Type II neuronal voltage-activated sodium channels (Rattus norvegicus, UniProt P04775); test: cell-based
Chain of Type II neuronal voltage-activated sodium channels (P04775 whole entry): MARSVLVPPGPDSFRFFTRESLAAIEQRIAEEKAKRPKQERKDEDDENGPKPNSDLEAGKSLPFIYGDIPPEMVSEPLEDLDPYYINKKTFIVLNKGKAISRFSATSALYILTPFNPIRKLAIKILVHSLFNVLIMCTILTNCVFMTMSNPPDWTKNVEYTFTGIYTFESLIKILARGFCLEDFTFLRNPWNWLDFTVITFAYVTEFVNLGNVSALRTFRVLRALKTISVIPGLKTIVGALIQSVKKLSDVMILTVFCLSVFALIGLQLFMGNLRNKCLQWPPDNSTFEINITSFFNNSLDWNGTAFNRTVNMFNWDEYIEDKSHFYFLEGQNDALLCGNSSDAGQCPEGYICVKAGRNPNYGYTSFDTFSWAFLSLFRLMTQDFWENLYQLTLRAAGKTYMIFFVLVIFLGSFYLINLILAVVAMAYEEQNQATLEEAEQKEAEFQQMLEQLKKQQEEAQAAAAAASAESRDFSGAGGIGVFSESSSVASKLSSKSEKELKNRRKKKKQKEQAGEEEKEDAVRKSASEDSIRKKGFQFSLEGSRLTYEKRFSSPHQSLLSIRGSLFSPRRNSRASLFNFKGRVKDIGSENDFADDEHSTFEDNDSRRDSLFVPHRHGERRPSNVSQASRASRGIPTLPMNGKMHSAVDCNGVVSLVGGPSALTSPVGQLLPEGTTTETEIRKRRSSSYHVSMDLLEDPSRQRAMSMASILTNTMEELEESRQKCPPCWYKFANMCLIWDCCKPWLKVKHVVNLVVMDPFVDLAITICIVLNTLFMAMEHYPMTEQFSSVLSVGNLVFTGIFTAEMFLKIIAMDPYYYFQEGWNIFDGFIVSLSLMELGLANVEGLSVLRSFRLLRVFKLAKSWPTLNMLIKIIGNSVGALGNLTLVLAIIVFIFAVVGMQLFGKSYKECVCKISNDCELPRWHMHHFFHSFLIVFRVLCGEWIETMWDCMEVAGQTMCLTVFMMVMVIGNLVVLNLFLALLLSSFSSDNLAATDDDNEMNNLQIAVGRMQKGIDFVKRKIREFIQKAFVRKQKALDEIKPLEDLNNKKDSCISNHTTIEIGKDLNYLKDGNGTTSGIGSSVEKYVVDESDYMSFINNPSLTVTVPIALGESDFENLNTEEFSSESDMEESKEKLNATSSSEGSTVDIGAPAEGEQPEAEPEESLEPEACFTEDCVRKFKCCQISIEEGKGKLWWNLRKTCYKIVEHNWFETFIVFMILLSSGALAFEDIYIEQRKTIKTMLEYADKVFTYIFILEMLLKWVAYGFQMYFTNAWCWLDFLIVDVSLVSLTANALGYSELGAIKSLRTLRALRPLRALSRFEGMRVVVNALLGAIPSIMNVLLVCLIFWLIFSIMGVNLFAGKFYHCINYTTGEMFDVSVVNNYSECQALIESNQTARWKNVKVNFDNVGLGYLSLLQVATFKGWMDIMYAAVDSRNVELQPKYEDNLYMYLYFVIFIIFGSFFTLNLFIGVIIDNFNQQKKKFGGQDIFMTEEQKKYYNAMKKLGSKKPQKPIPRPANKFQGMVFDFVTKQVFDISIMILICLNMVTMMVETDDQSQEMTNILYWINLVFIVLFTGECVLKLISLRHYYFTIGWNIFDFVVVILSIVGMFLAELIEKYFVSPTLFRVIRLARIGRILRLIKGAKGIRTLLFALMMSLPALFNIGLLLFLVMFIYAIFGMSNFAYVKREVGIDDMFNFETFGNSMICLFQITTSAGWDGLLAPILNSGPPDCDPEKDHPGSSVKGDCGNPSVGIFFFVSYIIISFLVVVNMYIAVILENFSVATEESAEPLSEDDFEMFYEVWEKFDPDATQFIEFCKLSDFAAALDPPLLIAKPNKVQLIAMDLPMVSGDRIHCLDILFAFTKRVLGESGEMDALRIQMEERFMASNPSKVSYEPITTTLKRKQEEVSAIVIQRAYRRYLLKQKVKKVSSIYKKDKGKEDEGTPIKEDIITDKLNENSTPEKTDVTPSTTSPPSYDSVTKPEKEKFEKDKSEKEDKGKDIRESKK

[5] = veratridine (100 μM)-induced, tetrodotoxin-sensitive uptake, CHO cells expressing rat brain Type II Na channels, read-out: IC50, block of ^14C guanidinium uptake

## CC(C)(C)c1ccc(NC(=N)Nc2cccc(OCc3ccccc3)c2)cc1.CS(=O)(=O)O [Example 108, N-(3-Benzyloxy)phenyl-N′-(4-tert-butylphenyl)guanidine.mesylate]
[1]
  % Inhibition of ^3H-Glu Rel @ 0.3 μM: 49%
[2]; 40 mg/kg intraperitoneally
  Audiogenic Response % Inhib.: 80%

## N=C(N=Cc1cccc2ccccc12)Nc1ccc2c3c(cccc13)CC2 [Example 10, N-(5-Acenaphthyl)-N′-[(1-naphthyl)-methylene]guanidine.CH3SO3H]
[3]
  % Inhibition of ^3H-Glu Rel @ 1 μM (*veratridine-induced glutamate release assay): 24* %
  % Inhibition of ^3H-Glu Rel @ 3 μM (*veratridine-induced glutamate release assay): 71* %

## CC(C)(C)c1ccc(CN(C(=N)N)c2ccc3c(c2)CCC3)cc1 [Example 26, N-(5-Indanyl)-N-(4-tert-butylbenzyl)guanidine.HCl]
[4]; [5]
  IC50: 700 nM

## N=C(Nc1ccc2c(c1)Cc1ccccc1-2)Nc1ccc2c(c1)Cc1ccccc1-2 [Example 12, N,N′-Bis(2-fluorenyl)guanidine.HBr]
[4]; [5]
  IC50: 1500 nM

## CC(C)c1ccc(NC(=N)Nc2ccc3ccccc3c2)cc1 [Example 11, N-(2-Naphthyl)-N′-(4-isopropylphenyl)guanidine.HCl]
[4]; [5]
  IC50: 900 nM

## N=C(Nc1ccc2ccccc2c1)NC1C2CC3CC(C2)CC1C3 (stereo not shown) [Example 16, N-(2-Naphthyl)-N′-(2-adamantyl)guanidine.HCl]
[4]; [5]
  IC50: 500 nM

## CC(C)(C)c1ccc(CN(C(=N)NN2CCOCC2)c2ccc(OCc3ccccc3)cc2)cc1.Cl [Example 79, N-(4-Benzyloxyphenyl)-N-(4-tert-butylbenzyl)-N′-(4-morpholinyl)guanidine.HCl]
[1]
  % Inhibition of ^3H-Glu Rel @ 0.3 μM: 77%
[2]; 20 mg/kg intraperitoneally
  Audiogenic Response % Inhib.: 41%
[2]; 40 mg/kg intraperitoneally
  Audiogenic Response % Inhib.: 68%

## Br.CCCCOc1ccc(NC(=N)Nc2ccc(OCCCC)cc2)cc1 [Example 137, N,N′-Bis(4-butoxyphenyl)guanidine.HBr]
[2]; 20 mg/kg intraperitoneally
  Audiogenic Response % Inhib.: 60%
[2]; 40 mg/kg intraperitoneally
  Audiogenic Response % Inhib.: 82%

## CCCCc1ccc(NC(=N)N(C)c2ccc(OCc3ccccc3)cc2)cc1.CS(=O)(=O)O [Example 110, N-(4-Benzyloxyphenyl)-N-methyl-N′-(4-butylphenyl)guanidine.mesylate]
[1]
  % Inhibition of ^3H-Glu Rel @ 0.3 μM: 77%
[2]; 20 mg/kg intraperitoneally
  Audiogenic Response % Inhib.: 42.3%
[2]; 40 mg/kg intraperitoneally
  Audiogenic Response % Inhib.: 92.5%

## CCCCc1ccc(NC(=N)Nc2ccc(CCCC)cc2)cc1.CS(=O)(=O)O [Example 37, N,N′-Bis(4-n-butylphenyl)guanidine.mesylate]
[1]
  % Inhibition of ^3H-Glu Rel @ 0.3 μM: 57%
  % Inhibition of ^3H-Glu Rel @ 1 μM: 100%
[2]; 25 mg/kg intraperitoneally
  Audiogenic Response % Inhib.: 82%
[2]; 40 mg/kg intraperitoneally
  Audiogenic Response % Inhib.: 92%

## N-(4-sec-Butylphenyl)-N-(4-t-butylbenzyl)-N′-pyrrolidinylguanidine.HCl [Example 72]
[1]
  % Inhibition of ^3H-Glu Rel @ 0.3 μM: 48%
[2]; 20 mg/kg intraperitoneally
  Audiogenic Response % Inhib.: 52%
[2]; 40 mg/kg intraperitoneally
  Audiogenic Response % Inhib.: 81%

## CC(C)(C)c1ccc(NC(=N)Nc2cccc(COCc3ccccc3)c2)cc1.CS(=O)(=O)O [Example 106, N-3-(Benzyloxymethyl)phenyl-N′-(4-tert-butylphenyl)guanidine.mesylate]
[1]
  % Inhibition of ^3H-Glu Rel @ 0.3 μM: 48%
[2]; 40 mg/kg intraperitoneally
  Audiogenic Response % Inhib.: 93%

## CCC(C)c1ccc(N(Cc2ccc(C(C)(C)C)cc2)C(=N)NN2CCSCC2)cc1.Cl (stereo not shown) [Example 73, N-(4-sec-Butylphenyl)-N-(4-t-butylbenzyl)-N′-(4-thiomorpholinyl)guanidine.HCl]
[1]
  % Inhibition of ^3H-Glu Rel @ 1 μM: 59%
[2]; 20 mg/kg intraperitoneally
  Audiogenic Response % Inhib.: 23%
[2]; 40 mg/kg intraperitoneally
  Audiogenic Response % Inhib.: 89%

## N=C(Nc1ccc(OCc2ccccc2)cc1)Nc1ccc(Oc2ccccc2)cc1 [N-(4-benzyloxyphenyl)-N′-(4-phenoxyphenyl)guanidine]
[2]; 20 mg/kg intraperitoneally
  Audiogenic Response % Inhib.: 16%
[2]; 40 mg/kg intraperitoneally
  Audiogenic Response % Inhib.: 93%

## CCCCc1ccc(NC(=N)Nc2ccc(OCc3ccccc3)cc2)cc1.Cl [Example 104, N-(4-Benzyloxyphenyl)-N′-(4-butylphenyl)guanidine.HCl]
[1]
  % Inhibition of ^3H-Glu Rel @ 0.3 μM: 76%
[2]; 20 mg/kg intraperitoneally
  Audiogenic Response % Inhib.: 40%
[2]; 40 mg/kg intraperitoneally
  Audiogenic Response % Inhib.: 90%

## CCC(C)c1ccc(N2CCCN(c3ccc(C(C)CC)cc3)C2=N)cc1 (stereo not shown) [Example 8, N,N′-Bis-(4-sec-butylphenyl)-2-iminopyrimidazolidine.HBr]
[1]
  % Inhibition of ^3H-Glu Rel @ 3 μM: 50%
[2]; 2 mg/kg intraperitoneally
  Audiogenic Response % Inhib.: 41%
[2]; 4 mg/kg intraperitoneally
  Audiogenic Response % Inhib.: 75%
[4]
  IC50: 200 nM

## CC(C)c1ccc(CN(C(=N)N)c2ccc(C3CCCCC3)cc2)cc1 [Example 20, N-(4-Cyclohexylphenyl)-N-(4-isopropylbenzyl)guanidine.HCl]
[4]; [5]
  IC50: 900 nM

## CC(CNC(=N)Nc1ccc2c3c(cccc13)CC2)c1ccccc1.Cl (stereo not shown) [Example 44, N-(5-Acenaphthyl)-N′-(2-methyl-2-phenylethyl)guanidine.HCl]
[3]
  % Inhibition of ^3H-Glu Rel @ 1 μM (*veratridine-induced glutamate release assay): 43* %
  % Inhibition of ^3H-Glu Rel @ 3 μM (*veratridine-induced glutamate release assay): 71* %

## CC(C)(C)c1ccc(CN(C(=N)N)c2ccc3c(c2)Cc2ccccc2-3)cc1 [Example 22, N-(2-Fluorenyl)-N-(4-tert-butylbenzyl)guanidine.HCl]
[4]; [5]
  IC50: 500 nM

## CC(C)(C)c1ccc(CN(C(=N)N)c2cccc(OC(F)(F)F)c2)cc1.Cl [Example 27, N-(3-Trifluoromethoxyphenyl)-N-(4-tert-butylbenzyl)guanidine.HCl]
[1]
  % Inhibition of ^3H-Glu Rel @ 1 μM: 24%
[4]; [5]
  IC50: 1200 nM

## CC(C)(C)c1ccc(NC(=N)Nc2ccc(Cl)c(Cl)c2Cl)cc1.Cl [Example 14, N-(4-tert-Butylphenyl)-N′-(2,3,4-trichlorophenyl)guanidine.HCl]
[1]
  % Inhibition of ^3H-Glu Rel @ 3 μM: 63%
[4]; [5]
  IC50: 1800 nM

## N-(5-Acenaphthyl)-N′-(indolinyl)guanidine.mesylate [Example 29]
[2]; 20 mg/kg intraperitoneally
  Audiogenic Response % Inhib.: 42%
[2]; 40 mg/kg intraperitoneally
  Audiogenic Response % Inhib.: 81%

## CN(C(=N)Nc1ccc(C(C)(C)C)cc1)c1ccc(OCc2ccccc2)cc1.CS(=O)(=O)O [Example 95, N-Methyl-N-4-benzyloxyphenyl-N′-(4-tert-butylphenyl)guanidin.mesylat]
[1]
  % Inhibition of ^3H-Glu Rel @ 0.3 μM: 44%
  % Inhibition of ^3H-Glu Rel @ 1 μM: 100%

## CC(Cc1ccc(Cl)cc1)NC(=N)Nc1ccc2c3c(cccc13)CC2.Cl (stereo not shown) [Example 40, N-(5-Acenaphthyl)-N′-(1-methyl-2-(4-chlorophenyl)ethyl)guanidine.HCl]
[1]
  % Inhibition of ^3H-Glu Rel @ 0.3 μM: 46%
  % Inhibition of ^3H-Glu Rel @ 1 μM: 64%

## CCCCc1ccc(NC(=N)N(C)c2ccc(CCCC)cc2)cc1.Cl [Example 101, N,N′-Bis-(4-butylphenyl)-N-methylguanidine.HCl]
[1]
  % Inhibition of ^3H-Glu Rel @ 0.3 μM: 35%

## CCCCCCc1ccc(NC(=N)Nc2ccc(CCCCCC)cc2)cc1.CS(=O)(=O)O [Example 96, N,N′-Bis-(4-Hexylphenyl)guanidine.mesylate]
[1]
  % Inhibition of ^3H-Glu Rel @ 0.1 μM: 54%
  % Inhibition of ^3H-Glu Rel @ 0.3 μM: 54%

## CCC(C)c1ccc(N(C)C(=N)N(Cc2ccc(C(C)(C)C)cc2)c2ccc(C(C)CC)cc2)cc1.Cl (stereo not shown) [Example 84, N-(4-sec-Butylphenyl)-N-(4-tert-butylbenzyl)-N′-(4-sec-butylphenyl)-N′-(methyl)guanidine.HCl]
[1]
  % Inhibition of ^3H-Glu Rel @ 1 μM: 37%

## CCC(C)c1ccc(N(Cc2ccc(C(C)(C)C)cc2)C(=N)NN2CCOCC2)cc1.Cl (stereo not shown) [Example 75, N-(4-sec-Butylphenyl)-N-(4-tert-butylbenzyl)-N′-(4-morpholinyl)guanidine.HCl]
[1]
  % Inhibition of ^3H-Glu Rel @ 0.3 μM: 42%

## CCC(C)c1ccc(N(Cc2ccc(C(C)(C)C)cc2)C(=N)N2CCc3ccccc3C2)cc1.Cl (stereo not shown) [Example 80]
[1]
  % Inhibition of ^3H-Glu Rel @ 0.3 μM: 68%

## CCC(C)c1ccc(N(Cc2ccc(C(C)(C)C)cc2)C(=N)Nc2ccc(Cl)c(Cl)c2)cc1.Cl (stereo not shown) [Example 89, N-(4-sec-Butylphenyl)-N-(4-tert-butylbenzyl)-N′-(3,4-dichlorophenyl)guanidine.HCl]
[1]
  % Inhibition of ^3H-Glu Rel @ 0.3 μM: 21%

## CN(C(=N)N(C)c1ccc(C(C)(C)C)cc1)c1ccc(C(C)(C)C)cc1.Cl [Example 102, N,N′-Bis-(4-tert-butylphenyl)-N,N′-dimethylguanidine.HCl]
[1]
  % Inhibition of ^3H-Glu Rel @ 0.1 μM: 18%
  % Inhibition of ^3H-Glu Rel @ 0.3 μM: 73%

## CCC(C)c1cccc(N(Cc2ccc(C(C)(C)C)cc2)C(=N)N)c1.Cl (stereo not shown) [Example 62, N-(3-sec-Butylphenyl)-N-(4-tert-butylbenzyl)guanidine.HCl]
[1]
  % Inhibition of ^3H-Glu Rel @ 1 μM: 22%

## CCC(C)c1ccc(N(C)C(=N)N(Cc2ccc(C(C)(C)C)cc2)c2ccc(C(C)(C)C)cc2)cc1.Cl (stereo not shown) [Example 83, N-(4-tert-Butylphenyl)-N-(4-tert-butylbenzyl)-N′-(4-sec-butylphenyl)-N′-(methyl)guanidine.HCl]
[1]
  % Inhibition of ^3H-Glu Rel @ 0.3 μM: 31%
  % Inhibition of ^3H-Glu Rel @ 1 μM: 63%

## CC(C)(C)c1ccc(CN(C(=N)N)c2ccc(C3CCCCC3)cc2)cc1 [Example 21, N-(4-Cyclohexylphenyl)-N-(4-tert-butylbenzyl)guanidine.HCl]
[4]; [5]
  IC50: 1900 nM
